Tests used:
Type in all cases: cell-based
MAP3K1 = test system: MAP3K1
PYK2 = test system: PYK2
FRK = test system: FRK
FER = test system: FER
ERK2 = test system: ERK2
ATR = test system: ATR
MLK3 = test system: MLK3
LYN = test system: LYN
CHK1 = test system: CHK1
PIK3CB = test system: PIK3CB
MAP3K5 = test system: MAP3K5
SRC = test system: SRC
STLK5 = test system: STLK5
p38b = test system: p38b
PFTAIRE1 = test system: PFTAIRE1
NDR1 = test system: NDR1
MAP3K2, MAP3K3 = assay: KiNativ kinase profiling in A375 cells; details: Lys2, SEQ ID NO 87, 1.0 μM
ILK = test system: ILK
MAP2K5 = test system: MAP2K5
Abl = assay: KiNativ kinase profiling in A375 cells
MAP3K6 = test system: MAP3K6
CaMK1a = test system: CaMK1a
PRPK = test system: PRPK
DGKQ = test system: DGKQ
[1] = test system: RSK1 domain1, RSK2 domain1, RSK3 domain1; assay: KiNativ kinase profiling in A375 cells; details: Lys2, SEQ ID NO 165, 1.0 μM
MAP2K4 = test system: MAP2K4
ERK5 = test system: ERK5
ZAK = test system: ZAK
MST1 = test system: MST1
LOK = test system: LOK
p70S6Kb = test system: p70S6Kb
KSR1, KSR2 = assay: KiNativ kinase profiling in A375 cells; details: Activation Loop, SEQ ID NO 70, 1.0 μM
SMG1 = test system: SMG1
VRK2 = test system: VRK2
OCI-Ly19 = assay: CellTiter-Glo cell viability assay; details: Homo sapiens, OCI-LY19, 72 h
Protocol: (§1) CellTiter-Glo® Luminescent cell viability assay (Promega) was used to assess cell survival following treatment with the compounds described. Cells were seeded into 384 well plates with the EL406 Combination Washer Dispenser (BioTek Instruments, Inc.) and the compounds were injected into the cells culture media with the JANUS Automated Workstation (PerkinElmer Inc.). Cells were treated with a series diluted inhibitors (20˜0.04 μM) for 72 hours at 37° C. Luminescent measurement is performed using the 2104 Envision® Multilabel Reader (PerkinElmer Inc.).

MWCL-1 = assay: CellTiter-Glo cell viability assay; details: 72 h
Protocol: as §1

BCWM.1 = assay: CellTiter-Glo cell viability assay; details: BCWM1, 72 h
Protocol: as §1

Ramos = assay: CellTiter-Glo cell viability assay; details: Homo sapiens, 72 h
Protocol: as §1

JAK1 = test system: JAK1
NEK3 = test system: NEK3
CAMK2D = test system: CAMK2D
TAO2 = test system: TAO2
RAF1 = test system: RAF1
OSR1 = test system: OSR1
FRAP = test system: FRAP
FYN = assay: KiNativ kinase profiling in A375 cells
CAMK2G = test system: CAMK2G
GCK = test system: GCK

CCN1CCN(Cc2ccc(NC(=O)c3ccc(C)c(Oc4cc(N)ncn4)c3)cc2C(F)(F)F)CC1 [(A-4), 3-((6-aminopyrimidin-4-yl)oxy)-N-(4-((4-ethylpiperazin-1-yl)methyl)-3-(trifluoromethyl)phenyl)-4-methylbenzamide]
inhibition of kinase labeling (MAP3K1): 26.9%
inhibition of kinase labeling (PYK2): 10.9%
inhibition of kinase labeling (FRK): 91.1%
inhibition of kinase labeling (FER): 91.4%
inhibition of kinase labeling (ERK2): −3.8%
inhibition of kinase labeling (ATR): 23.0%
inhibition of kinase labeling (MLK3): 20.7%
inhibition of kinase labeling (LYN): 87.8%
inhibition of kinase labeling (CHK1): −5.0%
inhibition of kinase labeling (PIK3CB): 27.8%
inhibition of kinase labeling (MAP3K5): −30.4%
inhibition of kinase labeling (SRC): 76.1%
inhibition of kinase labeling (STLK5): 5.0%
inhibition of kinase labeling (p38b): 51.4%
inhibition of kinase labeling (PFTAIRE1): 4.3%
inhibition of kinase labeling (NDR1): 9.3%
inhibition of kinase labeling (MAP3K2, MAP3K3): 3.2%
inhibition of kinase labeling (ILK): 5.2%
inhibition of kinase labeling (MAP2K5): 20.5%
inhibition of kinase labeling (Abl; ABL, ARG, Activation Loop, SEQ ID NO 1, 1.0 μM, A375 cells): 95.5%
inhibition of kinase labeling (MAP3K6): −25.0%
inhibition of kinase labeling (CaMK1a): 12.4%
inhibition of kinase labeling (PRPK): −13.7%
inhibition of kinase labeling (DGKQ): 11.0%
inhibition of kinase labeling [1]: −17.7%
inhibition of kinase labeling (MAP2K4): −14.1%
inhibition of kinase labeling (ERK5): 25.9%
inhibition of kinase labeling (ZAK): 75.7%
inhibition of kinase labeling (MST1): −4.7%
inhibition of kinase labeling (LOK): 19.9%
inhibition of kinase labeling (p70S6Kb): 8.2%
inhibition of kinase labeling (KSR1, KSR2): −10.0%
inhibition of kinase labeling (SMG1): −4.0%
inhibition of kinase labeling (VRK2): 27.9%
EC50 (OCI-Ly19): 9430 nM
EC50 (MWCL-1): 1150 nM
EC50 (BCWM.1): 3010 nM
EC50 (Ramos): 21100 nM
inhibition of kinase labeling (JAK1): 4.3%
inhibition of kinase labeling (NEK3): 13.1%
inhibition of kinase labeling (CAMK2D): −8.1%
inhibition of kinase labeling (TAO2): 86.0%
inhibition of kinase labeling (RAF1): 36.6%
inhibition of kinase labeling (OSR1): −11.1%
inhibition of kinase labeling (FRAP): −7.5%
inhibition of kinase labeling (FYN; FYN, SRC, YES, Activation Loop, SEQ ID NO 50, 1.0 μM, A375 cells): 71.2%
inhibition of kinase labeling (CAMK2G): −23.1%
inhibition of kinase labeling (GCK): 94.9%

CCN1CCN(Cc2ccc(NC(=O)c3ccc(C)c(Oc4ccnc(Nc5cnn(C)c5)n4)c3)cc2C(F)(F)F)CC1 [(A-14), N-(4-((4-ethylpiperazin-1-yl)methyl)-3-(trifluoromethyl)phenyl)-4-methyl-3-((2-((1-methyl-1H-pyrazol-4-yl)amino)pyrimidin-4-yl)oxy)benzamide]
KiNativ inhibition (LYN): 85.7%
LYN inhibition (LYN): 85.7%
Abl inhibition (Abl; 1 μM, A375 cells): > 90%
KiNativ inhibition (Abl; ABL, ARG, Activation Loop, SEQ ID NO 200, 1.0 μM): 98.4%
KiNativ inhibition (ZAK): 75.8%
ZAK inhibition (ZAK): 75.8%
EC50 (OCI-Ly19): 179 nM
EC50 (MWCL-1): 128 nM
EC50 (BCWM.1): 33 nM
EC50 (Ramos): 2090 nM
FYN inhibition (FYN; 1 μM, A375 cells): 88.2%
KiNativ inhibition (FYN; FYN, SRC, YES, Activation Loop, SEQ ID NO 255, 1.0 μM): 88.2%

Source: patent US10633348B2, “Methods to treat lymphoplasmacytic lymphoma” (Dana-Farber Cancer Institute, Inc., priority 2013, dated 2020)
